Legend:
Assay in all cases: relative viability (nuclei count vs DMSO), 5 days (fraction); higher = more cells survive
[1] = compound: COc1cccc2c1C(=O)c1c(O)c3c(c(O)c1C2=O)C[C@@](O)(C(=O)CO)C[C@@H]3O[C@H]1C[C@H](N)[C@H](O)[C@H](C)O1 [Doxorubicin] + Nc1ncn([C@H]2C[C@H](O)[C@@H](CO)O2)c(=O)n1 [Decitabine] (partner 2 µM)
In short: (§1)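 Lung cancer cell lines in 1536-well plates got either a single drug or a fixed anchor-drug dose together with five library-drug doses (not always all listed) in √10 steps, by pin tool, on the day after seeding. Nuclei were counted after 5 days, and relative viability is the treated-to-vehicle ratio of nuclei counts. Values are medians of duplicate plates.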

[2] = compound: COc1cccc2c1C(=O)c1c(O)c3c(c(O)c1C2=O)C[C@@](O)(C(=O)CO)C[C@@H]3O[C@H]1C[C@H](N)[C@H](O)[C@H](C)O1 [Doxorubicin] + CC(=O)Nc1cccc(-n2c(=O)n(C3CC3)c(=O)c3c(Nc4ccc(I)cc4F)n(C)c(=O)c(C)c32)c1 [Trametinib] (partner 0.02 µM)
In short: as §1

[3] = compound: COC1=C(C=C(C=C1)C2=CC3=NC=CN3C(=N2)NC4=C(C=CC=N4)C(=O)N)OC [BAY61-3606] + CCNC(=O)c1noc(-c2cc(C(C)C)c(O)cc2O)c1-c1ccc(CN2CCOCC2)cc1 [Luminespib] (partner 0.01 µM)
In short: as §1

[4] = compound: COc1cccc2c1C(=O)c1c(O)c3c(c(O)c1C2=O)C[C@@](O)(C(=O)CO)C[C@@H]3O[C@H]1C[C@H](N)[C@H](O)[C@H](C)O1 [Doxorubicin] + C[C@]1(O)C[C@@H](c2nc(-c3ccc4ccc(-c5ccccc5)nc4c3)c3c(N)nccn32)C1 [Linsitinib] (partner 1 µM)
In short: as §1

Cell Line	relative viability ([1]; first compound 0.001 µM)	relative viability ([1]; first compound 0.003162 µM)	relative viability ([1]; first compound 0.01 µM)	relative viability ([1]; first compound 0.03162 µM)	relative viability ([1]; first compound 0.1 µM)	relative viability ([2]; first compound 0.001 µM)	relative viability ([2]; first compound 0.003162 µM)	relative viability ([2]; first compound 0.01 µM)	relative viability ([2]; first compound 0.03162 µM)	relative viability ([2]; first compound 0.1 µM)	relative viability ([3]; first compound 0.02 µM)	relative viability ([3]; first compound 0.06325 µM)	relative viability ([3]; first compound 0.2 µM)	relative viability ([3]; first compound 0.6325 µM)	relative viability ([3]; first compound 2 µM)	relative viability ([4]; first compound 0.001 µM)	relative viability ([4]; first compound 0.003162 µM)	relative viability ([4]; first compound 0.01 µM)	relative viability ([4]; first compound 0.03162 µM)	relative viability ([4]; first compound 0.1 µM)
COR-L23	0.427	0.452	0.391	0.253	0.157	0.54	0.526	0.545	0.254	0.149	0.672	0.728	0.674	0.806	0.372	0.881	1.08	0.908	0.331	0.18
COR-L 105	0.626	0.734	0.506	0.53	0.384	0.452	0.483	0.423	0.423	0.377	0.827	0.689	0.75	0.76	0.503	1.05	1.04	0.955	0.557	0.433
EKVX	0.389	0.34	0.307	0.296	0.375	0.384	0.317	0.368	0.39	0.361	0.999	0.927	0.844	0.897	0.843	0.996	0.922	0.957	1.11	0.879
EMC-BAC-2	0.983	0.781	0.614	0.321	0.338	0.807	0.633	0.576	0.297	0.36	1.21	1.15	1.17	1.25	0.904	0.797	0.864	0.84	0.854	0.776
EPLC-272H	0.382	0.324	0.32	0.387	0.423	0.278	0.288	0.28	0.289	0.295	0.33	0.424	0.801	0.131	0.138	0.936	1.45	1.4	1.18	1.13
H3255	–	0.533	0.604	0.568	0.583	–	0.62	0.633	0.518	0.591	0.966	0.896	0.951	1.06	0.961	0.906	1.07	0.908	0.9	0.938
HARA	0.796	0.425	0.519	0.507	0.407	0.544	0.575	0.799	0.471	0.647	0.672	0.462	0.681	0.682	0.352	0.974	1.03	0.922	0.798	1.04
HCC-15	0.628	0.704	0.571	0.408	0.211	0.381	0.395	0.393	0.379	0.407	0.412	0.302	0.303	0.263	0.377	0.878	0.842	0.927	0.795	0.725
HCC-44	1.01	1.01	0.902	0.964	0.977	0.987	1.11	1.05	1.05	1.07	1.1	–	1.17	1.24	0.997	0.686	0.667	0.621	0.69	0.753
HCC-827	0.339	0.328	0.333	0.264	0.262	0.549	0.526	0.533	0.509	0.486	0.492	0.587	0.572	0.743	0.31	0.922	0.965	0.969	0.921	0.921
HOP-62	0.217	0.249	0.187	0.228	0.206	0.373	0.389	0.413	0.411	0.373	0.919	1.07	0.83	0.933	0.651	0.954	1.04	1.11	1.17	1.04
LC-2-ad	0.764	0.842	0.831	0.92	0.759	0.949	0.888	0.924	0.924	0.895	1.2	0.98	1.1	0.963	0.646	0.879	0.803	0.902	0.763	0.791
LCLC-97TM1	0.229	0.233	0.178	0.176	0.242	0.193	0.219	0.15	0.199	0.209	0.793	0.875	0.879	0.794	0.765	0.205	0.185	0.177	0.151	0.159
LCLC-103H	0.751	0.747	0.75	0.789	0.73	0.704	0.725	0.697	0.65	0.623	0.989	1.06	0.969	1.06	0.737	0.935	1.17	1.06	1.17	1.14
LK-2	0.238	0.376	0.251	0.258	0.23	0.798	0.936	0.598	0.578	0.699	0.168	0.163	0.185	0.185	0.208	0.524	0.742	0.409	0.483	0.627

— the supplement of paper PMC10307832
